Measured values: publication PMC6749236, “Synthesis of Novel 2-(Het)arylpyrrolidine Derivatives and Evaluation of Their Anticancer and Anti-Biofilm Activity” (Molecules, 2019)
Several values for one entry are separate records, joined by “and”; a condition that tells them apart may be missing. Equal entries are not always repeated. Marks after values point to notes of the source that are not given here.

Key:
[1] = tested on: Chang liver cell line; assay: Cytotoxicity assay (Cytell Cell Imaging), normal cell line; assay type: cell-based; settings: Homo sapiens, read-out: IC50 Normal Cell Line Chang Liver
[2] = tested on: M-Hela; assay: Cytotoxicity assay (Cytell Cell Imaging, DAPI/propidium iodide), cancer cell line; assay type: cell-based; settings: Homo sapiens, M-HeLa, read-out: IC50 Cancer Cell Line M-Hela
[3] = tested on: P388 murine leukemia; assay: In vivo anti-tumor activity, i.p. implanted leukemia; design: species or system BDF1 hybrid male mice; settings: for ILS / MST ± SD: P388; for Survival: day 60
Protocol: Animals. In vivo experiments were performed using the BDF1 hybrid male mice of 22–24 g weight. The experimental animals were caged in a standard vivarium in 12 h light conditions with free access to food and water. All manipulations with the animals were performed in accordance with the solutions of the Commission on Bioethics of the Institute of Problems of Chemical Physics, Russian Academy of Sciences (IPCP RAS).
Anti-tumor activity. The tumors were transplanted intraperitoneally (i.p.) in accordance with a standard procedure inoculum: 10^6 tumor cells in isotonic solution of NaCl, V = 0.2 cm^3 (leukemia P388). Original compounds were injected intraperitoneally as aqueous solution. Doses from 18 to 83 mg/kg/day and the mode of administration on days 1, 5, and 9 after transplantation were used. In each experiment, a single group of tumor-bearing animals not injected with the compounds served as the control group. Each group consisted of six mice. The animals were observed daily for survival for a minimum of 60 days. The efficacy of the therapy against leukemia (defined as increase in lifespan—ILS) was assessed as the percentage of the median survival time (MST) of the treated group (t) to that of the control group (c): ILS(%) = (MSTt/MSTc) × 100.
Statistics. The experiments were carried out in triplicate. The data are presented in the form X ± SD (mean ± standard deviation). The significance of the differences between the groups was assessed using Student’s t-test. Values of p < 0.05 were considered statistically significant. The data were processed statistically using GraphPad Prism.

[4] = tested on: Vibrio aquamarinus DSM 26054; assay: Biofilm formation, crystal violet assay; assay type: cell-based; settings: V. aquamarinus DSM 26054, control = 100%
Protocol: (§1) Bacterial strains and cultivation conditions. For the detection of biofilms, formation strains Vibrio aquamarinus DSM 26054 and Acinetobacter calcoaceticus VKPM B-10353 were used. These strains form biofilms, making them useful for studying biofilms.
(§2) The bacterial strains Acinetobacter calcoaceticus VKPM B-10353, E. coli MG1655 (pRecA-lux), and E. coli MG1655 (pSoxS-lux) were cultivated in Luria–Bertani (LB) medium under constant shaking to early exponential phase at 37 °C. Cells were used immediately for stress induction tests. One hundred micrograms of ampicillin per milliliter were added into LB medium at cultivation of E. coli MG1655 (pRecA-lux) and E. coli MG1655 (pSoxS-lux). Strain V. aquamarinus DSM 26054 was grown in LB medium supplemented with 3% NaCl.
(§3) The test compounds were dissolved in DMSO to the concentration of 1 × 10^−2 M. Then, they were diluted with ethanol. The control solutions were analogous dilutions of DMSO in ethanol. The tested compounds were also compared with the standard antibiotic azithromycin. Azithromycin was dissolved in DMSO to the concentration of 5 × 10^−3 M and then diluted with deionized water.
(§4) Test system for evaluation of biofilms production. To quantify the formation of biofilms, the crystal violet assay was used, with some modifications. The necessary concentrations of the test compounds were prepared as described above.
(§5) V. aquamarinus DSM 26054 was cultivated for 24 h in LB medium supplemented with 3% NaCl in the Innova 40R shaker incubator (New Brunswick Scientific, USA) at 25 °C and 200 rpm. A. calcoaceticus VKPM B-10353 was cultivated for 24 h in LB medium in the Innova 40R shaker incubator (New Brunswick Scientific, Enfield, CT, USA) at 30 °C and 200 rpm. Then, the suspensions of the daily culture of V. aquamarinus DSM 26054 and A. calcoaceticus VKPM B-10353 were diluted with LB medium supplemented with 3% NaCl to the density of 1 × 10^8 cells/mL.
(§6) The resulting suspension (180 μL) was added to the wells of a polystyrene microplate (Nuova Aptaca, Canelli, Italy). To some of the wells, 20 μL of the test substances at various concentrations were added. Since solvents used could also influence the biofilm formation, 20 μL of the appropriate solvent was added to the other part of the wells at same dilutions (control). Six replicates were done for each treatment and control. The microplate was covered with a lid and wrapped with Parafilm (Bemis Company, Inc., Oshkosh, WI, USA).
(§7) After incubation at 25 °C for 72 h, biofilms were stained. The contents in the wells were removed by means of a dispenser. The wells were then carefully washed three times with 250 μL of sterile saline. The microplates were shaken to remove all non-adherent bacteria. Biofilms were fixed with 200 μL of 96% ethanol for 15 min. After the microplates had dried in air, 200 μL of 0.5% crystal violet was introduced into the wells. After 10 min, the dye was removed. The excess dye was removed by washing with water three times. After the microplates were air-dried, the dye in the wells bound to biofilms was dissolved with 200 μL of 96% ethanol. The extraction level (absorption) of crystal violet by ethanol was measured after 60 minutes at a wavelength of 570 nm using a FLUOstar Omega microplate reader (BMG Labtech, Offenburg, Germany) in optical density units (OD570). The intensity of biofilm formation directly corresponds to the intensity of staining of the contents of the wells with the dye. Biofilm formation was determined by the difference between the mean OD readings obtained in the presence of compounds and the control.
(§8) Each experiment was performed in triplicate. The values were expressed as mean + SD. Student’s t-test was used to compare these values. Differences were considered statistically significant at p < 0.05.

[5] = tested on: Acinetobacter calcoaceticus VKPM B-10353; assay: Biofilm formation, crystal violet assay; assay type: cell-based; settings: A. calcoaceticus VKPM B-10353; for Biofilm Formation: control = 100%; for Biofilm formation with respect to control, over the investigated concentrations: 1 × 10^−9–1 × 10^−5 M
Protocol: as §1, §2, §3, §4, §5, §6, §7, §8

[6] = tested on: Escherichia coli MG1655 (pRecA-lux); assay: Genotoxicity, bacterial lux-biosensor; assay type: cell-based
Excerpt: (§9) E. coli MG1655 (pRecA-lux) was used for the evaluation of the genotoxicity of the synthesized compounds. The biosensor with the PrecA promotor fixes the presence of the factors causing damage of DNA in a cell. The biosensor E. coli MG1655 (pSoxS-lux) was used for the evaluation of prooxidant activity. The biosensor with the PsoxS promoter fixes the production of superoxide anion and NO [75]. Bioluminescent strains were obtained by the transformation of E. coli MG1655 by hybrid plasmids pRecA-lux, pSoxS-lux. The gene cassette luxCDABE Photorhabdus luminescens under the control PrecA promoters was used in this biosensor. This plasmid was created on the basis of pBR322 and contained a selective marker of ampicillin resistance (Amp gene). The strains were kindly furnished by Manukhov I.V., Federal State Unitary Enterprise “GosNIIGenetika”).
as §2
(§10) Biosensors assay procedure. The detailed protocol of toxicity testing by means of a bacterial lux-biosensors is described in the article.
(§11) Calculation. The criterion of toxic influence was bioluminescence intensity change of the test object in the researched sample in comparison with the control sample.
(§12) The induction factor (I) was defined as the relation of luminescence intensity of a lux-biosensor suspension containing tested sample (Lc) to the luminescence intensity of a lux-biosensor control suspension (Lk): I = Lc/Lk.
If at significant differences from control induction factor values were ≤2, the detected genotoxic effect was evaluated as “weak”, if they were in the range from 2 to 10 as “medium”, and above 10 as “strong”. All the experiments were carried out three times independently.
(§13) Difference reliability of bioluminescence in experiment from control value was estimated by t-criterion with the help of Excel software. The conclusions about sample toxicity were made at p < 0.05.

[7] = tested on: E. coli MG1655 (pSoxS-lux); assay: Prooxidant activity, bacterial lux-biosensor; assay type: cell-based, Escherichia coli
Excerpt: as §9, §2, §10, §11, §12, §13

[8] = 18 mg/kg/day i.p., days 1, 5, 9
[9] = 26 mg/kg/day i.p., days 1, 5, 9
[10] = 40 mg/kg/day i.p., days 1, 5, 9
[11] = 55 mg/kg/day i.p., days 1, 5, 9
[12] = 83 mg/kg/day i.p., days 1, 5, 9

NC(=O)N1CCCC1c1cc2c(cc1O)OCO2 (centres unmarked) [5a, 2-(6-Hydroxybenzo[d][1,3]dioxol-5-yl)pyrrolidine-1-carboxamide] showed an IC50 [1] greater than 100 µM, a melting point of 206 to 207 °C and an IC50 [2] greater than 100 µM.

In the case of Cc1cc(O)c(C2CCCN2C(=O)Nc2ccc(Br)cc2)c(=O)o1 (centres unmarked) [7d, N-(4-Bromophenyl)-2-(4-hydroxy-6-methyl-2-oxo-2H-pyran-3-yl)pyrrolidine-1-carboxamide], the IC50 [1] is reported as greater than 100 µM and the IC50 [2] is reported as greater than 100 µM.

In the case of CN(C)CCNC(=O)N1CCCC1c1c(O)c2ccccc2oc1=O.O=C(O)C(F)(F)F (centres unmarked) [8h, 2-(2-(4-Hydroxy-2-oxo-2H-chromen-3-yl)pyrrolidine-1-carboxamido)-N,N-dimethylethan-1-aminium 2,2,2-trifluoroacetate], the ILS [3, 8] is reported as 93%, the “MST ± SD” value [3, 8] is reported as 19.3 ± 8.1 days and the Survival ([3]; 18 mg/kg/day) is reported as 17%. The ILS [3, 9] was 107%, the “MST ± SD” value [3, 9] was 20.7 ± 8.0 days and the Survival ([3]; 26 mg/kg/day) was 17%. The ILS [3, 10] was 32%, the “MST ± SD” value [3, 10] was 13.2 ± 1.6 days and the Survival ([3]; 40 mg/kg/day) was 0%. The ILS [3, 11] was 98%, the “MST ± SD” value [3, 11] was 19.8 ± 8.1 days and the Survival ([3]; 55 mg/kg/day) was 17%. The ILS [3, 12] was 162%, the “MST ± SD” value [3, 12] was 26.2 ± 10.7 days and the Survival ([3]; 83 mg/kg/day) was 33%. For the same molecule, the “antitumor (anti-leukemic) activity, in words” value ([3]; P388, dose range 18–83 mg/kg/day i.p., days 1, 5, 9) was “pronounced anti-leukemic activity”, the IC50 [1] was greater than 100 µM and the IC50 [2] was greater than 100 µM.

In the case of CC[C@H]1OC(=O)[C@H](C)[C@@H](O[C@H]2C[C@@](C)(OC)[C@@H](O)[C@H](C)O2)[C@H](C)[C@@H](O[C@@H]2O[C@H](C)C[C@H](N(C)C)[C@H]2O)[C@](C)(O)C[C@@H](C)CN(C)[C@H](C)[C@@H](O)[C@]1(C)O [Azithromycin, reference compound], the “Biofilm Formation” value ([4]; 1 × 10^−5 M) is reported as 81.5% and 81.50 * %, the “Biofilm Formation” value ([4]; 1 × 10^−6 M) is reported as 103.80% and the “Biofilm Formation” value ([4]; 1 × 10^−7 M) is reported as 99.39%. The “Biofilm Formation” value ([4]; 1 × 10^−8 M) was 102.43%, the “Biofilm Formation” value ([4]; 1 × 10^−9 M) was 103.42% and the “Biofilm Formation” value ([5]; 1 × 10^−5 M) was 101.79%. The “Biofilm Formation” value ([5]; 1 × 10^−6 M) was 106.07%, the “Biofilm Formation” value ([5]; 1 × 10^−7 M) was 105.71% and the “Biofilm Formation” value ([5]; 1 × 10^−8 M) was 96.07%. The “Biofilm Formation” value ([5]; 1 × 10^−9 M) was 95.00% and the “Biofilm formation with respect to control, over the investigated concentrations” value [5] was “not detected”.

For O=[N+]([O-])c1c(Cl)cc2c(no[n+]2[O-])c1Nc1cccc(O)c1 [compound 4, 6-Chloro-4-((3-hydroxyphenyl)amino)-5-nitrobenzo[c][1,2,5]oxadiazole 1-oxide], the “DNA-damaging property, in words” value ([6]; 10^−9–10^−5 M, with and without S9) was “do not belong to the class of DNA-damaging substances”, the “Genotoxicity (induction factor, I)” value ([6]; with metabolic activation (+S9), 10^−5 M) was 1.11 ± 0.01 and the “Genotoxicity (induction factor, I)” value ([6]; with metabolic activation (+S9), 10^−6 M) was 1.28 ± 0.04. For the same molecule, the “Genotoxicity (induction factor, I)” value ([6]; with metabolic activation (+S9), 10^−7 M) was 1.18 ± 0.01, the “Genotoxicity (induction factor, I)” value ([6]; with metabolic activation (+S9), 10^−8 M) was 1.11 ± 0.02 and the “Genotoxicity (induction factor, I)” value ([6]; with metabolic activation (+S9), 10^−9 M) was 1.19 ± 0.01. The “Genotoxicity (induction factor, I)” value ([6]; without metabolic activation (-S9), 10^−5 M) was 1.10 ± 0.00, the “Genotoxicity (induction factor, I)” value ([6]; without metabolic activation (-S9), 10^−6 M) was 1.27 ± 0.01 and the “Genotoxicity (induction factor, I)” value ([6]; without metabolic activation (-S9), 10^−7 M) was 1.14 ± 0.02. The “Genotoxicity (induction factor, I)” value ([6]; without metabolic activation (-S9), 10^−8 M) was 1.27 ± 0.07, the “Genotoxicity (induction factor, I)” value ([6]; without metabolic activation (-S9), 10^−9 M) was 1.21 ± 0.04 and the “Prooxidant activity (induction factor)” value ([7]; 10^−5 M) was 1.64 ± 0.04. The “Prooxidant activity (induction factor)” value ([7]; 10^−6 M) was 1.54 ± 0.07, the “Prooxidant activity (induction factor)” value ([7]; 10^−7 M) was 1.74 ± 0.14 and the “Prooxidant activity (induction factor)” value ([7]; 10^−8 M) was 2.08 ± 0.05. For the same molecule, the “Prooxidant activity (induction factor)” value ([7]; 10^−9 M) was 1.85 ± 0.10, the “effect of superoxide-anion radical or NO level increase, in words” value ([7]; 10^−9–10^−8 M and 10^−7–10^−5 M) was “weak effect” and the “Biofilm Formation” value ([4]; 1 × 10^−5 M) was 96.57%. For the same molecule, the “Biofilm Formation” value ([4]; 1 × 10^−6 M) was 43.56 * %, the “Biofilm Formation” value ([4]; 1 × 10^−7 M) was 11.34 * % and the “Biofilm Formation” value ([4]; 1 × 10^−8 M) was 9.31 * %. For the same molecule, the “Biofilm Formation” value ([4]; 1 × 10^−9 M) was 66.58%, the “Biofilm Formation” value ([5]; 1 × 10^−5 M) was 149.22* % and the “Biofilm Formation” value ([5]; 1 × 10^−6 M) was 97.99%. The “Biofilm Formation” value ([5]; 1 × 10^−7 M) was 78.63 * %, the “Biofilm Formation” value ([5]; 1 × 10^−8 M) was 62.12 * % and the “Biofilm Formation” value ([5]; 1 × 10^−9 M) was 86.67 * %. The “Biofilm formation with respect to control, over the investigated concentrations” value [5] was “both suppressing and stimulating”.
